Data on 1 compound can be found in patent publication US7056938B1, “Method for scavenging radicals with urocanic acid, derivatives and analogues” (Academisch Ziekenhuis Bij De Univ., priority 1999, dated 2006).

Data set [1] can be described thus: deoxyribose (dR) degradation test, hydroxyl radical scavenging. The class given is biochemical. Here is the method:
Trans-UCA, cis-UCA, related imidazoles and non-imidazole compounds were tested with regard to their ability to compete with deoxyribose to scavenge hydroxyl radicals. On exposure to hydroxyl radicals deoxyribose is degraded into malondialdehyde, which reacts with thiobarbituric acid to form a pink chromogen. Powerful hydroxyl-radical scavengers will compete with deoxyribose, resulting in a reduced amount of malondialdehyde. Ten compounds, UCA, UCA analogues, alanine and uric acid (FIG. 1) were tested on their ability to scavenge hydroxyl radicals.
Method: the deoxyribose (dR) degradation test. The test was analogous to an earlier described method. Briefly, the reactions were performed in 5 mL screw cap glass tubes in a final volume of 1.0 mL sodium phosphate buffer (50 mM; pH 7.2), containing 3.0 mM 2 deoxy-D-ribose, 0.5 mM hydrogen peroxide and one of the test compounds at graded concentrations. The reaction was started by the addition of premixed disodium EDTA and ferrous iron solution (final concentrations 0.5 mM and 0.2 mM, respectively). The mixture was left for 15 minutes at room temperature. After addition of 1.0 mL 1% thiobarbituric acid in 50 mM NaOH and 0.75 mL 2.8% trichloroacetic acid, the tubes were heated for 20 minutes in a boiling water bath. The pink color was read at 532 nm and reciprocal absorption values were plotted against the concentration of the test compound after subtraction of appropriate blanks. A series of six duplicate determinations from test compound dilutions was employed to construct a graph slope for the calculation of a rate constant value. The mean, SD, number of rate constants and the percentage of inhibition of deoxyribose degradation, calculated for each test compound, are listed. Results. All second-order rate constants for reaction with hydroxyl radicals and, in addition, the percentage inhibition of deoxyribose degradation with equimolar concentrations (3 mM) of scavenger are summarized in Table 1. Trans-UCA and cis-UCA are substantially more powerful in scavenging hydroxyl radicals (8.0 and 7.1×10^3 M^−1,s^−1, respectively), than the other 4-(5-)-substituted imidazoles, including L-histidine (2.6×10^2 M^−1,s^−1). L-histidine, the precursor of UCA, was included as a known moderate scavenger with structural similarities to UCA. L-alanine was used as a known poor scavenger. Trans-FAA was tested as a non-imidazole acrylic acid derivative, having a furan ring instead.
FIG. 2. A determination of the second order rate constants of trans-UCA and cis-UCA with hydroxyl radicals. The rate constant was derived from the slope of the line (k=slope×kdR×[dR]×A0), where A0 is the absorbance, measured in the absence of hydroxyl radical scavenger. KdR was taken as 3.1×10^9 M^−1,s^−1, derived from pulse radiolysis studies, and [dR]=3 mM. […] The other scavengers were studied similarly.

A short description of data set [2]: Fenton oxidation of UCA (Fe2+ / hydrogen peroxide, HPLC). The class given is physicochemical. The conditions noted are these: for TRANS-UROCANIC ACID LEFT OVER: trans-UCA 40 μM, hydrogen peroxide 500 μM; for YIELD of FENTON OXIDATION PRODUCTS: sum of 8 major peaks. Here is the method: Trans-UCA and cis-UCA were separated from each other and from several UCA oxidation products on a 4.6×250 mm Alltima C18 and Luna C18 reversed-phase column (Alitech, Deerfield, Ill. and Phenomenex, Torrence, Calif., resp.) with a flow of 0.8 mL/min, delivered by P-3500 HPLC-pumps (Pharmacia, Uppsala, Sweden). Samples of 20 to 200 μL were injected by a Promis II autosampler (Spark Holland, Emmen, The Netherlands) and chromatographic data were recorded on an SP 4270 integrator (Spectra Physics, San Jose, Calif.). Peak area data from samples were only processed under identical HPLC circumstances. A UV-detector (Applied Biosystems, model 759A, Foster City, Calif.) was set for 226 nm detection. Isocratic elution was performed with 10 mM ammonium formate buffer, containing 0.2–0.8 mM tetrabutylammonium(TBA)formate and 1% acetonitrile (pH 7.2). Collected fractions were acidified with formic acid up to a final concentration of 100 mM and passed through C18 could phase extraction columns (J T Baker, Deventer, The Netherlands) in order to remove TBA.
[…] In addition, two hydroxyl-radical-generating systems with copper ions (Cu^2+) were used, consisting of 50 μM Cu^2+ with either 500 μM hydrogen peroxide or 5 mM ascorbic acid.
In the next series of experiments we studied the Fenton oxidation of UCA, representing another natural oxidation process. Trans-UCA and cis-UCA isomers were Fenton oxidized by ferorus ions (Fe^2+) and hydrogen peroxide at physiological concentrations. The initial hydrogen peroxide concentration was 500 μM and the ferrous ion concentration was varied from 0 to 500 μM. In all Fenton oxidation reactions the degree of UCA-isomer breakdown was calculated from their reduced peak areas. The oxidation reaction must have been completed within 2 minutes for all reaction conditions, because no further breakdown was observed after prolonged incubation.
When the Fenton reaction was performed in water instead of phosphate buffer, the oxidative breakdown of trans-UCA was enhanced irrespective of the UCA concentration. The turbidity seen in reactions performed in phoshate buffer (10 mM) with high Fe^2+ concentration (>100 μM) was probably due to the formation of insoluble, iron phosphate, thereby reducing the free availability of Fe^2+. Table 3 summarizes the difference between water and phosphate medium for trans-UCA at an initial concentration of 40 μM with respect to its breakdown and the formation of Fenton-oxidation products. Similarly to the photo-oxidation experiments, the peak areas of the 8 major oxidation products were summed. […] A close resemblance was observed between the chromatographic patterns of UCA Fenton oxidation products (not shown) and those of UCA photo-oxidation products. Three of them has been identified (vide infra).
In another series of experiments we studied the Fenton oxidation of UCA, representing another natural oxidation process. The initial hydrogen peroxide concentration was 500 μM in all experiments and the ferrous ion concentration was varied from 0 to 400 μM. Four sets of conditions were compared: […] in phosphate buffer pH 7.2, 2. Fe^2+ in phosphate buffer plus EDTA, 3. Fe^2− without buffer with a initial pH of 5.5–5.3 and 4. Cu^2+ in phosphate buffer plus ascorbate. The degree of breakdown was similar for both UCA isomers.

Turning to `O=C(O)/C=C/c1cnc[nH]1` [trans-Urocanic acid, Trans-urocanic acid], the “INHIBITION of DEOXYRIBOSE DEGRADATION” value in data set [1] ([SCAVENGER] = [DEOXYRIBOSE] = 3 Mm) worked out at 67%. Moreover, the “SECOND ORDER RATE CONSTANT for reaction with hydroxyl radicals” value in data set [1] (mean of n slopes, sodium phosphate buffer pH 7.2) stood at 8e+09 M⁻¹ s⁻¹. Besides, in data set [1] (single set of FIG. 2, kdR 3.1×10^9, [dR]=3 mM), the “second order rate constant in the particular set of FIG. 2” value is 8.49 ×10^9 M^−1,s^−1. Also, the “TRANS-UROCANIC ACID LEFT OVER” value is given as 100 (±1) % in data set [2] (Fe2+ 0 μM, in phosphate buffer 10 mM pH 7.2); 100 (±3) % in data set [2] (Fe2+ 0 μM, in water); 97 (±1) % in data set [2] (Fe2+ 50 μM, in phosphate buffer 10 mM pH 7.2); 77 (±11) % in data set [2] (Fe2+ 50 μM, in water); 94 (±5) % in data set [2] (Fe2+ 100 μM, in phosphate buffer 10 mM pH 7.2); 48 (±7) % in data set [2] (Fe2+ 100 μM, in water). The “TRANS-UROCANIC ACID LEFT OVER” value in data set [2] (Fe2+ 250 μM, in phosphate buffer 10 mM pH 7.2) is 83 (±3) %; in data set [2] (Fe2+ 250 μM, in water), 19 (±8) %; in data set [2] (Fe2+ 500 μM, in phosphate buffer 10 mM pH 7.2), 78 (±12) %; in data set [2] (Fe2+ 500 μM, in water), <4%. The “YIELD of FENTON OXIDATION PRODUCTS” value is <10 A.U in data set [2] (Fe2+ 0 μM, in phosphate buffer); <10 A.U in data set [2] (Fe2+ 0 μM, in water); <10 A.U in data set [2] (Fe2+ 50 μM, in phosphate buffer); 194 (±34) A.U in data set [2] (Fe2+ 50 μM, in water); 27 (±5) A.U in data set [2] (Fe2+ 100 μM, in phosphate buffer); 272 (±6) A.U in data set [2] (Fe2+ 100 μM, in water). Also, the “YIELD of FENTON OXIDATION PRODUCTS” value is 36 (±3) A.U in data set [2] (Fe2+ 250 μM, in phosphate buffer); 423 (±76) A.U in data set [2] (Fe2+ 250 μM, in water); 49 (±9) A.U in data set [2] (Fe2+ 500 μM, in phosphate buffer); 511 (±35) A.U in data set [2] (Fe2+ 500 μM, in water). Moreover, the “broken down by the unbuffered Fenton oxidation system” value in data set [2] (initial UCA concentration 250 μM, unbuffered) is reported as 78%.
